# Source: patent publication US12220410B2, “Antitumor composition” (priority 2019, dated 2025)
# Where two headings read alike, the source gives them in different places.
# Tests used:
# [1] = test system: human acute myelogenous leukemia (AML) cell line KG-1; type: in vivo
# [2] = test system: human diffuse large B-cell lymphoma cell line OCI-Ly7; type: in vivo; settings: for Tumor growth delay / Tumor growth delay rate: relative tumor volume 1600%
# [3] = test system: human acute myelogenous leukemia (AML) cell line KG-1; type: in vivo; remark: listed apart in the source
# [4] = test system: human diffuse large B-cell lymphoma cell line OCI-Ly7; type: in vivo
# [5] = test system: human diffuse large B-cell lymphoma cell line OCI-Ly7; design: species or system SCID mice; settings: mouse, in vivo
# [6] = test system: human diffuse large B-cell lymphoma cell line OCI-Ly7; type: in vivo; remark: listed apart in the source
# [7] = test system: human breast cancer cell line MDA-MB-453; test: In vivo antitumor effect test, MDA-MB-453 tumor, compound A and lapatinib (Example 37); design: species or system NOD-SCID mice; settings: for Tumor growth delay / Tumor growth delay rate: relative tumor volume 200%
# Method: The tumor volume was calculated from tumor diameters by the following formula: (Long diameter×[Short diameter]^2×0.5). Using the calculated tumor volume value, the relative tumor volume (ratio of the tumor volume on the day of measurement to the baseline tumor volume on Day 1) was calculated. […] Further, the tumor growth delay rate (% TGD) was calculated according to the following formula: % TGD={(T−C)/C}×100, Where: • T: […] relative tumor volume of the control group to reach 1600% 6) Statistical Analysis
# Compound A was suspended in a 1% hypromellose solution to prepare 20 mg/mL test substance suspensions (a suspension for preparing a single administration solution and a suspension for preparing a 100 mg/kg combined administration solution). The 20 mg/mL test substance suspensions were diluted with a 1% hypromellose solution to prepare 10 mg/mL (100 mg/kg administration solution), 6 mg/mL (suspension for preparing a 30 mg/kg combined administration solution), and 3 mg/mL (30 mg/kg administration solution) test substance suspensions. Lapatinib was suspended in a 1% hypromellose solution to prepare a 20 mg/mL suspension for preparing a 100 mg/kg lapatinib combined administration solution. The 20 mg/mL suspension was diluted with a 1% hypromellose solution to prepare a 10 mg/mL suspension for 100 mg/kg single administration. The administration solution of the combination group was prepared by mixing the 6 mg/mL compound A suspension and the 20 mg/mL lapatinib suspension at 1:1, or mixing the 20 mg/mL compound A suspension and the 20 mg/mL lapatinib suspension at 1:1.
# MDA-MB-453 was obtained from ATCC. […] The collected cells were suspended in serum-free RPMI 1640 medium at 1.0×10^8 cells/mL.
# 5-week-old female NOD-SCID mice (NOD.CB17-Prkdcscid/J, produced by Charles River Japan Co., Ltd.) were used. The female NOD-SCID mice were bred in the same manner as in Example 36. The cell suspension was inoculated at 2×10^7 cells/body into the subcutaneous space of the right axillary region of the 6-week-old NOD-SCID mice, and the mice were grouped in the same manner as in Example 36 using the tumor volume as an index.
# The administration was started on the next day of the grouping (Day 2), and compound A and lapatinib were orally administered once a day for 28 consecutive days. Each group (N=8) was treated as follows. • (1) Control (solvent control) group: 1% hypromellose solution • (2) Compound A (30 mg/kg) treated group: 30 mg/kg of compound A (oral administration once a day for 28 consecutive days) • (3) Compound A (100 mg/kg) treated group: 100 mg/kg of compound A (oral administration once a day for 28 consecutive days) • (4) Lapatinib (100 mg/kg) treated group: 100 mg/kg of lapatinib (oral administration once a day for 28 consecutive days) • (5) Combination group 1: 30 mg/kg of compound A (oral administration once a day for 28 consecutive days)+100 mg/kg of lapatinib (oral administration once a day for 28 consecutive days) • (6) Combination group 2: 100 mg/kg of compound A (oral administration once a day for 28 consecutive days)+100 mg/kg of lapatinib (oral administration once a day for 28 consecutive days)
# [8] = test system: human diffuse large B-cell lymphoma (DLBCL) cell line OCI-Ly7; test: In vitro cell growth inhibition test, OCI-Ly7 (cell viability, combination index); type: cell-based; settings: bendamustine 0 nM
# [9] = test system: human follicular lymphoma cell line DOHH-2; test: In vitro cell growth inhibition test (CellTiter-Fluor), DOHH-2; type: cell-based; settings: DOHH-2
# [10] = test system: human acute myelogenous leukemia (AML) cell line KG-1; type: in vivo; remark: listed apart in the source
# [11] = compound A 10 mg/kg orally once a day for 14 days
# [12] = compound A 30 mg/kg orally once a day for 14 days
# [13] = compound A 100 mg/kg orally once a day for 14 days
# [14] = compound A 30 mg/kg orally once a day for 21 days, relative tumor volume 600%
# [15] = compound A 30 mg/kg orally once a day for 28 days
# [16] = compound A 100 mg/kg orally once a day for 28 days
smiles,measurement,setting,value
"CNc1ccc(Oc2ccc(NC(=O)c3ccc(C(F)(F)F)cc3)cn2)c(C)c1.Cl [Compound A, N-{6-[2-methyl-4-(methylamino)phenoxy]pyridin-3-yl}-4-(trifluoromethyl)benzamide hydrochloride]",antitumor effect on KG-1 tumor,"[1]; compound A 50 mg/kg, venetoclax 50 mg/kg + decitabine 1 mg/kg",antitumor effect
same,T/C (ratio of relative tumor volume of treated group to control group),"[1]; compound A single administration 50 mg/kg orally, daily, 14 days, Day 16",29.2%
same,effectiveness of monotherapy (tumor growth delay),"[2]; 30 or 100 mg/kg of compound A, 50 mg/kg of cyclophosphamide",effective
same,Median Time (time for relative tumor volume to reach 1600%),[2]; [11],13.2 days
same,Tumor growth delay,[2]; [11],0.5 days
same,Tumor growth delay rate,[2]; [11],3.5%
same,Median Time (time for relative tumor volume to reach 1600%),[2]; [12],23.0 days
same,Tumor growth delay,[2]; [12],10.3 days
same,Median Time (time for relative tumor volume to reach 1600%),[2]; [13],31.5 days
same,Tumor growth delay,[2]; [13],18.8 days
same,Tumor growth delay rate,[2]; [13],147.6%
same,antitumor effect on KG-1 tumor (monotherapy),"[3]; compound A 30 mg/kg, cytarabine 50 mg/kg",antitumor effect
same,T/C (ratio of relative tumor volume of treated group to control group),"[3]; compound A monotherapy 30 mg/kg orally, daily, 14 days, Day 16",52.0%
same,effectiveness of monotherapy (tumor growth delay),"[4]; 30 mg/kg of compound A, 10 mg/kg of rituximab",effective
same,Median Time (time for relative tumor volume to reach 600%),[4]; compound A 30 mg/kg orally once a day for 21 days,28.4 days
same,Tumor growth delay,[4]; [14],12.1 days
same,Tumor growth delay rate,[4]; [14],73.9%
same,effectiveness (tumor growth delay),[5],effective
same,Median Time (time for relative tumor volume to reach 800%),"[5]; po, 30 mg/kg",18.2 days
same,Tumor growth delay,"[5]; po, 30 mg/kg",8.3 days
same,Tumor growth delay rate,"[5]; po, 30 mg/kg",83.8%
same,effectiveness of monotherapy (tumor growth delay),"[6]; 30 mg/kg of compound A, 15 mg/kg of bendamustine",effective
same,Median Time (time for relative tumor volume to reach 1600%),[6]; [12],23.9 days
same,Tumor growth delay,"[6]; compound A 30 mg/kg orally once a day for 14 days, relative tumor volume 1600%",8.4 days
same,effectiveness of monotherapy (tumor growth delay),"[7]; 30 or 100 mg/kg of compound A, 100 mg/kg of lapatinib",effective
same,Median Time (time for relative tumor volume to reach 200%),[7]; [15],39.3 days
same,Tumor growth delay,[7]; [15],16.5 days
same,Tumor growth delay rate,[7]; [15],72.4%
same,Median Time (time for relative tumor volume to reach 200%),[7]; [16],>99.0 days
same,Tumor growth delay,[7]; [16],>76.2 days
same,Tumor growth delay rate,"[7]; compound A 100 mg/kg orally once a day for 28 days, hydrochloride, 100 mg/kg",>334.2%
same,Tumor growth delay rate,"[7]; compound A 100 mg/kg orally once a day for 28 days, listed as compound A, hydrochloride, 100 mg/kg",> 334.2%
same,Cell viability (ratio relative to the drug-free control),"[8]; compound A 0.25 nM, OCI-Ly7, 8000 cells/well",0.79
same,Cell viability (ratio relative to the drug-free control),"[8]; compound A 0.5 nM, OCI-Ly7",0.76
same,Cell viability (ratio relative to the drug-free control),"[8]; compound A 1 nM, OCI-Ly7",0.61
same,Cell viability (ratio relative to the drug-free control),"[8]; compound A 2 nM, OCI-Ly7",0.50
same,FIC (fractional inhibitory concentration),"[9]; bendamustine fixed at 0 nM, compound A at its IC50",1
same,FIC (fractional inhibitory concentration),"[9]; bendamustine fixed at 1250 nM, compound A at its IC50",0.595
same,FIC (fractional inhibitory concentration),"[9]; bendamustine fixed at 2500 nM, compound A at its IC50",0.258
same,FIC (fractional inhibitory concentration),"[9]; bendamustine fixed at 5000 nM, compound A at its IC50",0.123
same,FIC (fractional inhibitory concentration),"[9]; compound A fixed at 0 nM, bendamustine at its IC50",0
same,FIC (fractional inhibitory concentration),"[9]; compound A fixed at 39.1 nM, bendamustine at its IC50",0.103
same,FIC (fractional inhibitory concentration),"[9]; compound A fixed at 78.1 nM, bendamustine at its IC50",0.205
same,FIC (fractional inhibitory concentration),"[9]; compound A fixed at 156.3 nM, bendamustine at its IC50",0.410
same,FIC (fractional inhibitory concentration),"[9]; compound A fixed at 312.5 nM, bendamustine at its IC50",0.820
same,antitumor effect on KG-1 tumor (monotherapy),"[10]; compound A 30 mg/kg, decitabine 1 mg/kg",antitumor effect
same,T/C (ratio of relative tumor volume of treated group to control group),"[10]; compound A monotherapy 30 mg/kg orally, daily, 21 days, Day 23",45.2%
